The text below walks through data of patent publication US20190127381A1, “SUBSTITUTED FUSED PYRIMIDINONE COMPOUNDS” (TORRENT PHARMACEUTICALS LIMITED, priority 2016, published 2019).

The inhibition is the drop in the measured response relative to a control, in per cent.

Experiment [1] deals with T1, purified recombinant human PI3K enzyme δ (Homo sapiens, UniProt O00329).
T1 construct: purchased Invitrogen, USA
The experiment is described as follows: Inhibition of PI3-Kinase enzymatic activity (HTRF enzyme assay), δ. The format is biochemical. The note with it: 1 μM compound; PI3K δ 50 ng/well; PIP2 10 μM; ATP 200 μM; read-out: Percentage inhibition of PI3K activity, δ. In outline:
(§1)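 HTRF assay with compound at 1 μM (1.0% DMSO), recombinant human PI3Kδ (50 ng/well) or γ (100 ng/well) and PIP2 (10 μM), preincubated 15 min at room temperature. ATP (δ 200 μM, γ 50 μM) was then added for 30 min at room temperature. Percent inhibition was derived from the 665/615 nm signal ratio.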
On the technique in general: TR-FRET usually uses a lanthanide donor and a delayed reading to cut background.

Experiment [2] deals with T2, purified recombinant human PI3K enzyme γ (Homo sapiens, UniProt P48736).
T2 construct: purchased Invitrogen, USA
Put plainly: Inhibition of PI3-Kinase enzymatic activity (HTRF enzyme assay), γ. The format is biochemical. The note with it: 1 μM compound; PI3K γ 100 ng/well; PIP2 10 μM; ATP 50 μM; read-out: Percentage inhibition of PI3K activity, γ. An outline of the steps:
as §1

The test system of experiment [3] is OVA induced pulmonary inflammatory cell accumulation in BAL fluid. Put plainly: Ovalbumin (OVA) model of airway inflammation (asthma) in mice. The format is in vivo. The note with it: OVA challenge. Here is the method:
Allergen chicken egg ovalbumin (OVA) model, which shares features similar to human allergic asthma, including the presence of eosinophilic and lymphocytic lung inflammation, is frequently used for model for asthma. Ovalbumin is an inert protein that is not intrinsically immunogenic and therefore needs to be injected systemically in the presence of an adjuvant, typically aluminum hydroxide (alum), to induce Th2-driven response in mice (Curr. Protoc. Mouse Biol. 6:169-184, 2016).
Ovalbumin (20 μg) (OVA, Sigma Aldrich, St. Louis, Mo.), emulsified with inject alum (1 mg, 0.2 mL) was administered in mice intraperitoneally (i.p.) on days 1 and 14 for sensitization, and then challenged with OVA (0.5% w/v) exposure for 30 minutess using nebulizer on days 21, 22 and 23 in Compound no 44 treated and vehicle control animals. Saline control mice received normal saline as sensitization and challenge dose in similar fashion.
Lung delivery of compound of present invention was achieved by whole body aerosol exposure using nebulizer for 25 minutes in a chamber. Mice were divided in different dose groups and exposed in a chamber for 25 minutes with vehicle or Compound no 44 (1 mg/ml or 3 mg/ml). Test compound/vehicle was administered once daily for 5 days starting from day 20 till day 24. On each challenge day treatment was administered 2 hr before OVA challenge. Bronchoalveolar lavage (BAL) was performed 48 hr post last OVA exposure (i.e. on day 25).
Trachea of animal was cannulated using catheter. Phosphate Buffer Saline (PBS) was used as lavage fluid. A volume of 0.5 ml was gently instilled and withdrawn and collected in microcentrifuge tube placed on ice. This procedure was repeated further 3 times.
Lavage fluid was separated from cells by centrifugation and supernatant separated. The cell pallet was resuspended in known volume of PBS. Cells in aliquot were stained using Turk solution and total cell numbers were calculated by counting Turk stained aliquot under microscope using haemocytometer.
The residual cell suspension was resuspended with PBS and slides prepared using cyto centrifuge technique (Cytospin 4, Thermo Shandon). The slides were then fixed with methanol, air dried and stained with May Grunwald Giemsa stain. Up to 300 cells were counted and differentiated using standard morphometric techniques under light microscopy.
All results are presented at individual data for each animal and mean value calculated for each group. Percentage inhibition for each cell type is calculated as below.
% inhibition=[(Vehicle treatment−Drug treatment)/(Vehicle treatment−Saline treatment)]*100

[4] abbreviates: 1 mg/ml nebulized 25 minutes once daily for 5 days.
The mark [5] stands for this setting: 3 mg/ml nebulized 25 minutes once daily for 5 days.

T1 sequence (O00329 whole entry): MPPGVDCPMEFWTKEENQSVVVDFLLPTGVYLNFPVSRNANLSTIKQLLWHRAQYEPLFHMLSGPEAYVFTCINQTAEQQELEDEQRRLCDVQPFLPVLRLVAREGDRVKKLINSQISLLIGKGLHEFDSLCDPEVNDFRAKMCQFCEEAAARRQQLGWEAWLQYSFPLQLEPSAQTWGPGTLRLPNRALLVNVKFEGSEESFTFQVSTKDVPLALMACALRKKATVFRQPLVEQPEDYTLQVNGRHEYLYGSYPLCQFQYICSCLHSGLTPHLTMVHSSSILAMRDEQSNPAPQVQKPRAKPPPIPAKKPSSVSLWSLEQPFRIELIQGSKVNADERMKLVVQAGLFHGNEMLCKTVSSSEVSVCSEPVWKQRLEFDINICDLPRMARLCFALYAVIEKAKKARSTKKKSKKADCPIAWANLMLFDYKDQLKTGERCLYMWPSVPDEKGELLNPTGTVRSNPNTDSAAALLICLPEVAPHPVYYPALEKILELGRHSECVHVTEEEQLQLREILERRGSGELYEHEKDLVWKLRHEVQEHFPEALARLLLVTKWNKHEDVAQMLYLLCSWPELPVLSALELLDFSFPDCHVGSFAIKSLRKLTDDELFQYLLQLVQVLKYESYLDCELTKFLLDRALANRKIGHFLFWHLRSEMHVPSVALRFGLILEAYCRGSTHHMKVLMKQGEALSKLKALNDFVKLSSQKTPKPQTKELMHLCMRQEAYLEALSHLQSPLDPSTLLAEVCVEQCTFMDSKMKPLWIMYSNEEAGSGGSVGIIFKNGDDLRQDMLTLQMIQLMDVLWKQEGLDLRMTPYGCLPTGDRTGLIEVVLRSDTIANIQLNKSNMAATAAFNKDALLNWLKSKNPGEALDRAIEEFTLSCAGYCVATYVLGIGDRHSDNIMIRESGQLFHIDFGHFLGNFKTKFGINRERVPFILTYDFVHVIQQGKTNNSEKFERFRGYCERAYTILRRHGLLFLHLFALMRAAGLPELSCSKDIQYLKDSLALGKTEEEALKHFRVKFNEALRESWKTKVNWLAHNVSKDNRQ
T1 sequence (P27986 whole entry partner): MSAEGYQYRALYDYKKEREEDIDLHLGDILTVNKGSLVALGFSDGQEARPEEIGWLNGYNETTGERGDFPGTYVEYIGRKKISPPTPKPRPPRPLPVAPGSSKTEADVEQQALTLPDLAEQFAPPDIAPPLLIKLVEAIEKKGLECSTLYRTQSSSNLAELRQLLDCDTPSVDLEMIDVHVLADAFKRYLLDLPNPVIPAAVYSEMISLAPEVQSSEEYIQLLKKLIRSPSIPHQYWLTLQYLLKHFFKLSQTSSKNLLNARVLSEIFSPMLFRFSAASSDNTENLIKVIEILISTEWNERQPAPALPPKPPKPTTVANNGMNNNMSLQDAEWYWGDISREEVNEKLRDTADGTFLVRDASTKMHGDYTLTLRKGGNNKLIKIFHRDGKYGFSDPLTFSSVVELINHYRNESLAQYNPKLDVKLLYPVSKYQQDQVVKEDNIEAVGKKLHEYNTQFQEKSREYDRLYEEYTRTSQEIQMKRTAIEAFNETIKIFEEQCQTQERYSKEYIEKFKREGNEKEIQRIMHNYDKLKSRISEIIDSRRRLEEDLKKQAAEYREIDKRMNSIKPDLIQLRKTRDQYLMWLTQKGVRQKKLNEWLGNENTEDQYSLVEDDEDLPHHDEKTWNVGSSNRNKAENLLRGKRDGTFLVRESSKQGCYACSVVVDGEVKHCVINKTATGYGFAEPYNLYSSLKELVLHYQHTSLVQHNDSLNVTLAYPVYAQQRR
T2 sequence (P48736 whole entry): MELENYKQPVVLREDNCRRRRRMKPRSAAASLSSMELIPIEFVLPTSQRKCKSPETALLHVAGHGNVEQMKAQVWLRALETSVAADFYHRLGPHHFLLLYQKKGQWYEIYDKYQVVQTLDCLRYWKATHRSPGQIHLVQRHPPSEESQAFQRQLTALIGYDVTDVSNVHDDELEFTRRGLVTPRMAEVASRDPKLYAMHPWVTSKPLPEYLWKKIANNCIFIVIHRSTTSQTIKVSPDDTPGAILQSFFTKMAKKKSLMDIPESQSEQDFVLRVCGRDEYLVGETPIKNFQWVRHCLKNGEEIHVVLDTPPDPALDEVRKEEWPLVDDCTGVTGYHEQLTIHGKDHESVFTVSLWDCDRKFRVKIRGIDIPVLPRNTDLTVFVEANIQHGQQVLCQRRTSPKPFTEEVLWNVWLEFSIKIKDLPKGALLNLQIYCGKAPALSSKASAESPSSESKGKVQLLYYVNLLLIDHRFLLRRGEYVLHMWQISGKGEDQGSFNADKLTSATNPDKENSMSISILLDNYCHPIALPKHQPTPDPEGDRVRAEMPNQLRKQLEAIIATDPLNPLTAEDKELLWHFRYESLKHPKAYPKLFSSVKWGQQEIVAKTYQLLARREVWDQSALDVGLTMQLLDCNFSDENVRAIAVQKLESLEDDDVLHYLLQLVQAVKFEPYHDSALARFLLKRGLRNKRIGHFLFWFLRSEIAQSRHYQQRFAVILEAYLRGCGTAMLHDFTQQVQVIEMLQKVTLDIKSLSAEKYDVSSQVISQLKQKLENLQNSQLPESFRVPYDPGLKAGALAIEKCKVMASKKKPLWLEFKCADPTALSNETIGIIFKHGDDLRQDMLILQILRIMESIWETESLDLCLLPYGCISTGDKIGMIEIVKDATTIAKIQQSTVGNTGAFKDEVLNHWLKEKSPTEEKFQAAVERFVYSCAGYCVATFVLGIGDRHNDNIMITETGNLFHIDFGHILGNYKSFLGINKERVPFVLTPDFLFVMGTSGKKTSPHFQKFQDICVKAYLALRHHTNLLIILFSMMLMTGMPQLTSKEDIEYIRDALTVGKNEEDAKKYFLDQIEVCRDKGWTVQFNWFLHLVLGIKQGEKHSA

In the case of `Cn1cc(-c2cccc3nc(Cn4nc(-c5ccc(O)c6c5CC(C)(C)O6)c5c(N)ncnc54)n(-n4cccc4)c(=O)c23)cn1` [Compound No. 44, 2-{[4-amino-3-(7-hydroxy-2,2-dimethyl-2,3-dihydro-1-benzofuran-4-yl)-1H-pyrazolo[3,4-d]pyrimidin-1-yl]methyl}-5-(1-methyl-1H-pyrazol-4-yl)-3-(1H-pyrrol-1-yl)quinazolin-4(3H)-one], the inhibition at 1 µM in experiment [1] and in experiment [2] was 80 to 100% each time. The “reduced eosinophil influx (% inhibition) in BAL fluid” value turned out to be 42% in experiment [3] (setting [4]) and 56% in experiment [3] (setting [5]). The “reduced lymphocyte influx (% inhibition) in BAL fluid” value in experiment [3] (setting [4]) was 27%; in experiment [3] (setting [5]), 39%.

For the compound `COc1ccc(-c2nn(Cc3nc4cccc(C)c4c(=O)n3-n3c(C)ccc3C)c3ncnc(N)c23)c2c1OC(C)(C)C2` [compound 78, 2-{[4-amino-3-(7-methoxy-2,2-dimethyl-2,3-dihydro-1-benzofuran-4-yl)-1H-pyrazolo[3,4-d]pyrimidin-1-yl]methyl}-3-(2,5-dimethyl-1H-pyrrol-1-yl)-5-methylquinazolin-4(3H)-one], the inhibition at 1 µM in experiment [1] fell in the range of 80 to 100%; in experiment [2], 60 to 80%.

In the case of `Cc1ccc(C)n1-n1c(Cn2nc(-c3ccc(O)c4c3CC(C)(C)O4)c3c(N)ncnc32)nc2cccc(C#CCN3CCOCC3)c2c1=O` [compound 80, 2-{[4-amino-3-(7-hydroxy-2,2-dimethyl-2,3-dihydro-1-benzofuran-4-yl)-1H-pyrazolo[3,4-d]pyrimidin-1-yl]methyl}-3-(2,5-dimethyl-1H-pyrrol-1-yl)-5-[3-(morpholin-4-yl)prop-1-yn-1-yl]quinazolin-4(3H)-one], the inhibition at 1 µM in experiment [1] lay within 80 to 100%; in experiment [2], 60 to 80%.

Consider `COc1ccc(-c2nn(Cc3nc4cccc(C)c4c(=O)n3-n3cccc3)c3ncnc(N)c23)c2c1OC(C)(C)C2` [compound 84, 2-{[4-amino-3-(7-methoxy-2,2-dimethyl-2,3-dihydro-1-benzofuran-4-yl)-1H-pyrazolo[3,4-d]pyrimidin-1-yl]methyl}-5-methyl-3-(1H-pyrrol-1-yl)quinazolin-4(3H)-one], for which the results for the inhibition at 1 µM in experiment [1] and in experiment [2] were 80 to 100% and 60 to 80%, respectively.

As for `CCn1cc(-c2cccc3nc(Cn4nc(-c5ccc(O)c6c5CC(C)(C)O6)c5c(N)ncnc54)n(-n4c(C)ccc4C)c(=O)c23)cn1` [compound 85, 2-{[4-amino-3-(7-hydroxy-2,2-dimethyl-2,3-dihydro-1-benzofuran-4-yl)-1H-pyrazolo[3,4-d]pyrimidin-1-yl]methyl}-3-(2,5-dimethyl-1H-pyrrol-1-yl)-5-(1-ethyl-1H-pyrazol-4-yl)quinazolin-4(3H)-one], the inhibition at 1 µM in experiment [1] and in experiment [2] was 80 to 100% each time.

For `Cc1ccc(C)n1-n1c(Cn2nc(-c3ccc(O)c4c3CC(C)(C)O4)c3c(N)ncnc32)nc2ccccc2c1=O` [compound 88, 2-{[4-amino-3-(7-hydroxy-2,2-dimethyl-2,3-dihydro-1-benzofuran-4-yl)-1H-pyrazolo[3,4-d]pyrimidin-1-yl]methyl}-3-(2,5-dimethyl-1H-pyrrol-1-yl)quinazolin-4(3H)-one], the inhibition at 1 µM in experiment [1] and in experiment [2] was 80 to 100% throughout.

With `CCCn1cc(-c2cccc3nc(Cn4nc(-c5ccc(O)c6c5CC(C)(C)O6)c5c(N)ncnc54)n(-n4c(C)ccc4C)c(=O)c23)cn1` [compound 89, 2-{[4-amino-3-(7-hydroxy-2,2-dimethyl-2,3-dihydro-1-benzofuran-4-yl)-1H-pyrazolo[3,4-d]pyrimidin-1-yl]methyl}-3-(2,5-dimethyl-1H-pyrrol-1-yl)-5-(1-propyl-1H-pyrazol-4-yl)quinazolin-4(3H)-one], the inhibition at 1 µM in experiment [1] and in experiment [2] was 80 to 100% throughout.

Consider `Cc1ccc(C)n1-n1c(Cn2nc(-c3ccc(O)c4c3CCC4)c3c(N)ncnc32)nc2cccc(-c3cnn(C)c3)c2c1=O` [compound 93, 2-{[4-amino-3-(7-hydroxy-2,3-dihydro-1H-inden-4-yl)-1H-pyrazolo[3,4-d]pyrimidin-1-yl]methyl}-3-(2,5-dimethyl-1H-pyrrol-1-yl)-5-(1-methyl-1H-pyrazol-4-yl)quinazolin-4(3H)-one], for which the inhibition at 1 µM in experiment [1] and in experiment [2] was 80 to 100% each time.

As for `CCn1cc(-c2cccc3nc(Cn4nc(-c5ccc(O)c6c5CCC6)c5c(N)ncnc54)n(-n4c(C)ccc4C)c(=O)c23)cn1` [compound 94, 2-{[4-amino-3-(7-hydroxy-2,3-dihydro-1H-inden-4-yl)-1H-pyrazolo[3,4-d]pyrimidin-1-yl]methyl}-3-(2,5-dimethyl-1H-pyrrol-1-yl)-5-(1-ethyl-1H-pyrazol-4-yl)quinazolin-4(3H)-one], the inhibition at 1 µM in experiment [1] and in experiment [2] was 80 to 100% in each case.

For `Cc1cccc2nc([C@H](C)n3nc(-c4ccc(O)c5c4CC(C)(C)O5)c4c(N)ncnc43)n(-n3c(C)ccc3C)c(=O)c12` [compound 95, 2-{(1S)-1-[4-amino-3-(7-hydroxy-2,2-dimethyl-2,3-dihydro-1-benzofuran-4-yl)-1H-pyrazolo[3,4-d]pyrimidin-1-yl]ethyl}-3-(2,5-dimethyl-1H-pyrrol-1-yl)-5-methylquinazolin-4(3H)-one], the inhibition at 1 µM in experiment [1] and in experiment [2] was 80 to 100% in each case.

With `CCn1cc(-c2cccc3nc([C@H](C)n4nc(-c5ccc(O)c6c5CC(C)(C)O6)c5c(N)ncnc54)n(-n4cccc4)c(=O)c23)cn1` [compound 99, 2-{(1S)-1-[4-amino-3-(7-hydroxy-2,2-dimethyl-2,3-dihydro-1-benzofuran-4-yl)-1H-pyrazolo[3,4-d]pyrimidin-1-yl]ethyl}-5-(1-ethyl-1H-pyrazol-4-yl)-3-(1H-pyrrol-1-yl)quinazolin-4(3H)-one], the inhibition at 1 µM was 80 to 100% in experiment [1] and 40 to 60% in experiment [2].
